Laboratory results from US11691949B2, “Quinoline sulfonamide compounds and their use as antibacterial agents” (OTAGO INNOVATION LIMITED, priority 2017, dated 2023).
≈ marks a conversion by molar mass, not a printed value. Read-outs that look alike come from different tables or passages of the source.

Assays:
Assay type in all cases: cell-based
E. coli ATCC 10596 = assay: MIC by broth microdilution, E. coli; settings: Escherichia coli, read-out: E. coli ATCC 10536 MIC
Procedure, shortened: (§1)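 Two-fold serial dilutions were tested in broth at ~5×10^5 cfu/mL: S. aureus in TSB or CAMHB, E. coli in LB or CAMHB, with 50 μM zinc sulphate added as required. After 24 h at 37° C, 200 rpm, MIC was the lowest concentration showing no growth by OD600.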

S. aureus ATCC 6538 = assay: MIC by broth microdilution, S. aureus; settings: Staphylococcus aureus, read-out: S. aureus ATCC 6538 MIC
Procedure, shortened: as §1

S. uberis ATCC 19436 = assay: MIC by broth microdilution, S. uberis; settings: Streptococcus uberis, read-out: S. uberis ATCC 19436 MIC
Procedure, shortened: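 This broth microdilution assay used S. uberis ATCC 19436 in Todd Hewitt Broth, with zinc sulphate heptahydrate added where required to a final 50 μM. Inhibitor concentration ranges came from two-fold serial dilutions in 96-well flat bottom plates at 200 μl. Approximately 5×10^5 cfu/mL cells were incubated for 24 h at 37° C. and 200 rpm. Wells were then read at OD600 on a Varioskan Flash reader.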

[1] = ATCC 10536 / ATCC 10596, No Zinc
[2] = ATCC 10536 / ATCC 10596, Zinc (50 μM)

| Structure (SMILES) | MIC (E. coli ATCC 10596; [1]) [µg/mL] | MIC (E. coli ATCC 10596; [2]) [µg/mL] | MIC (S. aureus ATCC 6538; ATCC6538, No Zinc) [µg/mL] | MIC (S. aureus ATCC 6538; ATCC6538, Zinc (50 μM)) [µg/mL] | MIC (S. uberis ATCC 19436; ATCC19436, No Zinc) [µg/mL] | MIC (S. uberis ATCC 19436; ATCC19436, Zinc (50 μM)) [µg/mL] |
| --- | --- | --- | --- | --- | --- | --- |
| CN(C)Cc1ccc2cccc(NS(=O)(=O)Cc3ccccc3)c2n1 [ZDR317, N-(2-((Dimethylamino)methyl)quinolin-8-yl)-1-phenylmethanesulfonamide] | > 256 | > 256 | > 256 | 128 (≈ 360 µM) | 256 (≈ 720 µM) | 0.25 (≈ 0.703 µM) |
| CC(C)S(=O)(=O)Nc1cccc2ccc(CN(C)C)nc12 [ZDR318, N-(2-((Dimethylamino)methyl)quinolin-8-yl)propane-2-sulfonamide] | > 256 | > 256 | > 256 | > 256 | 256 (≈ 833 µM) | 32 (≈ 104 µM) |
| COC(=O)c1sccc1S(=O)(=O)Nc1cccc2ccc(CN(C)C)nc12 [ZDR319, Methyl 3-(N-(2-((dimethylamino)methyl)quinolin-8-yl)sulfamoyl)thiophene-2-carboxylate] | > 256 | > 256 | > 256 | > 256 | > 256 | 1 (≈ 2.47 µM) |
| CN(C)Cc1ccc2cccc(NS(=O)(=O)Cc3ccc(C(F)(F)F)cc3)c2n1 [ZDR320, N-(2-((Dimethylamino)methyl)quinolin-8-yl)-1-(4-(trifluoromethyl)phenyl)methanesulfonamide] | > 256 | > 256 | > 256 | 128 (≈ 302 µM) | 256 (≈ 605 µM) | 0.0625 (≈ 0.148 µM) |
| CCCCS(=O)(=O)Nc1cccc2ccc(CN(C)C)nc12 [ZDR321, N-(2-((Dimethylamino)methyl)quinolin-8-yl)butane-1-sulfonamide] | > 256 | > 256 | > 256 | 128 (≈ 398 µM) | 256 (≈ 796 µM) | 0.25 (≈ 0.778 µM) |
| CN(C)Cc1ccc2cccc(NS(=O)(=O)c3ccc(Cl)nc3)c2n1 [ZDR322, 6-Chloro-N-(2-((dimethylamino)methyl)quinolin-8-yl)pyridine-3-sulfonamide] | > 256 | > 256 | 128 (≈ 340 µM) | > 256 | > 256 | 0.25 (≈ 0.663 µM) |
| CN(C)Cc1ccc2cccc(NS(=O)(=O)C3CC3)c2n1 [ZDR323, N-(2-((Dimethylamino)methyl)quinolin-8-yl)cyclopropanesulfonamide] | > 256 | > 256 | > 256 | 256 (≈ 838 µM) | > 256 | 1 (≈ 3.27 µM) |
| CN(C)Cc1ccc2cccc(NS(=O)(=O)c3ccc(C=O)cc3)c2n1 [ZDR324, N-(2-((Dimethylamino)methyl)quinolin-8-yl)-4-formylbenzenesulfonamide] | > 256 | > 256 | 256 (≈ 693 µM) | 256 (≈ 693 µM) | 256 (≈ 693 µM) | 1 (≈ 2.71 µM) |
| CN(C)Cc1ccc2cccc(NS(=O)(=O)c3ccc(Cl)s3)c2n1 [ZDR326, 5-Chloro-N-(2-((dimethylamino)methyl)quinolin-8-yl)thiophene-2-sulfonamide] | 256 (≈ 670 µM) | > 256 | 32 (≈ 83.8 µM) | 128 (≈ 335 µM) | 128 (≈ 335 µM) | 0.125 (≈ 0.327 µM) |
| CC(=O)Nc1cccc(S(=O)(=O)Nc2cccc3ccc(CN(C)C)nc23)c1 [ZDR327, N-(3-(N-(2-((Dimethylamino)methyl)quinolin-8-yl)sulfamoyl)phenyl)acetamide] | > 256 | > 256 | > 256 | > 256 | 256 (≈ 642 µM) | 8 (≈ 20.1 µM) |
| CN(C)Cc1ccc2cccc(NS(=O)(=O)c3cccnc3)c2n1 [ZDR328, N-(2-((Dimethylamino)methyl)quinolin-8-yl)pyridine-3-sulfonamide] | > 256 | > 256 | > 256 | > 256 | > 256 | 1 (≈ 2.92 µM) |
| CN(C)Cc1ccc2cccc(NS(=O)(=O)c3ccc(SC(F)(F)F)cc3)c2n1 [ZDR330, N-(2-((Dimethylamino)methyl)quinolin-8-yl)-4-((trifluoromethyl)thio)benzenesulfonamide] | > 256 | > 256 | 32 (≈ 72.5 µM) | 32 (≈ 72.5 µM) | 128 (≈ 290 µM) | 0.125 (≈ 0.283 µM) |
